One assay has as its target T1, hTG2 (Homo sapiens, UniProt P21980).
T1 construct: purchased Zedira T022
T1 sequence (P21980 1-687): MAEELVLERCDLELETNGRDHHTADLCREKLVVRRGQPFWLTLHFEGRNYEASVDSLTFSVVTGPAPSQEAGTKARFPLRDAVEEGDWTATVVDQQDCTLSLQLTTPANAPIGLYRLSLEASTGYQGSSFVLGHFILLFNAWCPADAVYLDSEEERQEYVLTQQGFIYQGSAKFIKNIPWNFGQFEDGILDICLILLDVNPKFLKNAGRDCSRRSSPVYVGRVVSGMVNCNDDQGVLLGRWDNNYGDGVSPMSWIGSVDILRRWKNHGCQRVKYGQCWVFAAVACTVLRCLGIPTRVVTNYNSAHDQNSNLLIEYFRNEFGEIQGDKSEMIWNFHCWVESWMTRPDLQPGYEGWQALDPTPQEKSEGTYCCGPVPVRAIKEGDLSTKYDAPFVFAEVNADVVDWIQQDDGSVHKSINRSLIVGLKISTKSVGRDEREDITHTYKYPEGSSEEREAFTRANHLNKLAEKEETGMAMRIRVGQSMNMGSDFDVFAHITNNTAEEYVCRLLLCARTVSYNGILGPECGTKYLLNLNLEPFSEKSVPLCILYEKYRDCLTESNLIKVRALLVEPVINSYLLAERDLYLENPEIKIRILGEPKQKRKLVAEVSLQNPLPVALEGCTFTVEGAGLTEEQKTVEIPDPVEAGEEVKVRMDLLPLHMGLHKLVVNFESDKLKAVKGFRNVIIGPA
The experiment in a line: Fluorescent transamidation assay (DCC-assay), hTG2. The class given is biochemical. Particulars: for IC50: recombinant human TG2, transamidation assay, apparent IC50 of irreversible inhibitor, read-out: App. IC50 hTG2; for Fold less potent compared to ZED1227 (hTG2): same transamidation assay. The method, then: Inhibition data were determined using the fluorescent transamidation assay (dansylcadaverine incorporation into glutamine-donor substrate N,N-dimethyl casein, DCC-assay). Briefly, to 15 μL of ZED1227 solution (dissolved and serial diluted in 2% (v/v) DMSO/assay buffer), 285 μL assay buffer [47.5 mM tris(hydroxymethyl)aminomethane, 9.5 mM CaCl2, 9.5 mM glutathione, 2.4% (v/v) glycerol, 190 mM NaCl, pH 8.0] containing dansylcadaverine (15.9 μM), N,N-dimethyl casein (3.8 μM) and the indicated recombinant transglutaminase enzyme [0.95 μg/mL hTG1 (T035), 0.81 μg/mL hTG2 (T022), 0.83 μg/mL hTG6 (T021), all from Zedira] were added, mixed and the kinetic measurement started immediately. In the case of hFXIII-A2 (0.83 μg/mL, T027, Zedira), the assay buffer contained human α-thrombin (5.2 × 10^−3 U/μL, T056, Zedira). The mixture was incubated for 20 min at room temperature to activate FXIII. In the case of hTG3a (0.81 μg/mL, T013, Zedira), full enzymatic activity was obtained by incubation for 80 min at 37 °C in assay buffer before addition of the inhibitor and start of the kinetics.
Fluorescence emission was continuously monitored for 30 min at λem = 500 nm (λex = 330 nm) and 37 °C using a CLARIOstar fluorescence plate reader (BMG Labtech, Ortenberg, Germany). All measurements were performed in triplicate. The respective IC50 (and IC90 for TG2) values were calculated by non-linear regression using the MARS software package (BMG Labtech). An irreversible-acting inhibitor, such as ZED1227, should, correctly, be characterized by the second-order rate constant k2nd, as detailed by Keillor [46]. However, such data are rather abstract and difficult to comprehend.
To facilitate comparability during lead structure optimization and to roughly estimate concentrations needed at the target site, the apparent IC50 values (calculated by four-parameter non-linear fit by MARS software) for irreversible inhibitors are more instructive and are therefore reported. Further, we report the potency of commercially available reference inhibitors Z006 (“Z-DON”), Z013 (ZED754), and T101 (all Zedira). To gain deeper mechanistic insight, we discuss the second-order rate constants (k2nd) published for Z006 and ZED754 in relation to their respective IC50 values.

In the next assay the target is TG2. More on the design: method as in PMID 32045569. Particulars: TG2 catalyzed hydrolysis of Z-Glu(HMC)-Gly-OH at pH 6.5; cited from earlier work.

Square brackets hold non-standard residues; d marks the D form. Peptide text beside a SMILES is read from it. * marks the point of attachment. Nle(5E-ene,6-CO2Et) = CCOC(=O)/C=C/CC[C@H](N)C(=O)O; DON = [N-]=[N+]=CC(=O)CC[C@H](N)C(=O)O; Cbz = O=C(OCc1ccccc1)*

In the case of `CC(=O)CSc1n(C)c(C)c(C)[n+]1C.[Cl-]` [T101], at hTG2, the IC50 amounted to 1780 nM and the “Fold less potent compared to ZED1227 (hTG2)” value is 33 fold.

Consider `COC(=O)[C@H](CC(C)C)NC(=O)[C@@H]1CCCN1C(=O)[C@@H](NC(=O)[C@H](CCC(=O)C=[N+]=[N-])NC(=O)OCc1ccccc1)C(C)C` [Z006, Z-DON-Val-Pro-Leu-OMe] (Cbz-[DON]VPL-OMe), for which, on hTG2, the IC50 was determined as 70 nM. On TG2, the inhibitory constant (Ki) is 96 nM and the “k2nd (second-order rate constant)” value was 191,000 M^−1s^−1.

Turning to `CCOC(=O)/C=C/CC[C@H](NC(=O)OCc1ccccc1)C(=O)N[C@@H](CCC(N)=O)C(=O)N1CCC[C@H]1C(=O)N[C@@H](CC(C)C)C(=O)OC` [ZED754] (Cbz-[Nle(5E-ene,6-CO2Et)]QPL-OMe), on hTG2, the IC50 was found to be 182 nM and the “Fold less potent compared to ZED1227 (hTG2)” value is given as “about 3.5 fold”. On TG2, the inhibitory constant (Ki) was 450 nM and the “k2nd (second-order rate constant)” value was 51,500 M^−1s^−1.

In general, IC50 refers to the midpoint of a concentration-inhibition curve. For orientation: Ki means a dissociation constant, usually derived from enzyme kinetics or from competition with a known ligand.

The values are drawn from publication PMC9139979, “Features of ZED1227: The First-In-Class Tissue Transglutaminase Inhibitor Undergoing Clinical Evaluation for the Treatment of Celiac Disease” (Cells, 2022).
